# Measurements as given in patent US8536136B2, “Inhibitors of serine proteases, particularly HCV NS3-NS4A protease” (Vertex Pharmaceuticals Incorporated, priority 2004, dated 2013).
# pKi: −log10 of the molar value.
# Molecular target: HCV NS3-NS4A protease (tNS3 with KK4A) (Hepatitis C virus genotype 1a, UniProt P27958)
# Test: HCV Ki Assay (HPLC microbore separation of 5AB substrate and products)
# Assay type: biochemical
# Details: 25 nM tNS3, 25 μM KK4A, 25 μM 5AB substrate, 20 min at 30 C
# Protocol: HPLC Microbore Method for Separation of 5AB Substrate and Products
# NH2-Glu-Asp-Val-Val-(alpha)Abu-Cys-Ser-Met-Ser-Tyr-COOH
# A stock solution of 20 mM 5AB (or concentration of your choice) was made in DMSO w/0.2M DTT. This was stored in aliquots at −20 C.
# Buffer: 50 mM HEPES, pH 7.8; 20% glycerol; 100 mM NaCl
# Total assay volume was 100 μL
# The buffer, KK4A, DTT, and tNS3 were combined; distributed 78 μL each into wells of 96 well plate. This was incubated at 30 C for ˜5-10 min.
# 2.5 μL of appropriate concentration of test compound was dissolved in DMSO (DMSO only for control) and added to each well. This was incubated at room temperature for 15 min.
# Initiated reaction by addition of 20 μL of 250 μM 5AB substrate (25 μM concentration is equivalent or slightly lower than the Km for 5AB).
# Incubated for 20 min at 30 C.
# Terminated reaction by addition of 25 μL of 10% TFA
# Transferred 120 μL aliquots to HPLC vials
# Separated SMSY product from substrate and KK4A by the following method:
# Microbore Separation Method:
# Stop time: 17 min Post-run time: 10 min.
# Sequence of HCV NS3-NS4A protease (tNS3 with KK4A) (P27958 1027-1208): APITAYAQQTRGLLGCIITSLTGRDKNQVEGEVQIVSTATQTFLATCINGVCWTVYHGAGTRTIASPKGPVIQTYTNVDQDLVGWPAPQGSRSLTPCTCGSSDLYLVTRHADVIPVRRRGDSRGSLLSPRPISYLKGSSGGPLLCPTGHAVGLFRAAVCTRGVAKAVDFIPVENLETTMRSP
# Sequence of HCV NS3-NS4A protease (tNS3 with KK4A) (P27958 1658-1711): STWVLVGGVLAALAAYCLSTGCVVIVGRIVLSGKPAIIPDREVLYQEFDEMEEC
row,Compound,pKi
1,"CCC[C@H](NC(=O)[C@@H]1C[C@@H]2CCCC[C@@H]2N1C(=O)[C@@H](NC(=O)[C@@H](NC(=O)c1cnccn1)C1CCCCC1)C(C)(C)C)C(=O)C(=O)NOC(C)(C)C [Compound 2, 1-(2-{2-Cyclohexyl-2-[(pyrazine-2-carbonyl)-amino]-acetylamino}-3,3-dimethyl-butyryl)-octahydro-indole-2-carboxylic acid (1-tert-butoxyaminooxalyl-butyl)-amide]",> 5.82
2,"CCC[C@H](NC(=O)[C@@H]1C[C@@H]2CCCC[C@@H]2N1C(=O)[C@@H](NC(=O)[C@@H](NC(=O)c1cnccn1)C1CCCCC1)C(C)(C)C)C(=O)C(=O)NN(C)c1ccccc1 [Compound 6, 1-(2-{2-Cyclohexyl-2-[(pyrazine-2-carbonyl)-amino]-acetylamino}-3,3-dimethyl-butyryl)-octahydro-indole-2-carboxylic acid [1-(N′-methyl-N′-phenyl-hydrazinooxalyl)-butyl]-amide]",> 5.82
3,"CCC[C@H](NC(=O)[C@@H]1C[C@@H]2CCCC[C@@H]2N1C(=O)[C@@H](NC(=O)[C@@H](NC(=O)c1cnccn1)C1CCCCC1)C(C)(C)C)C(=O)C(=O)NOCC(C)C [Compound 1, 1-(2-{2-Cyclohexyl-2-[(pyrazine-2-carbonyl)-amino]-acetylamino}-3,3-dimethyl-butyryl)-octahydro-indole-2-carboxylic acid (1-isobutoxyaminooxalyl-butyl)-amide]",> 5.82
4,"C=CCONC(=O)C(=O)[C@H](CCC)NC(=O)[C@@H]1C[C@@H]2CCCC[C@@H]2N1C(=O)[C@@H](NC(=O)[C@@H](NC(=O)c1cnccn1)C1CCCCC1)C(C)(C)C [Compound 4, 1-(2-{2-Cyclohexyl-2-[(pyrazine-2-carbonyl)-amino]-acetylamino}-3,3-dimethyl-butyryl)-octahydro-indole-2-carboxylic acid (1-allyloxyaminooxalyl-butyl)-amide]",< 5.52
5,"CCC[C@H](NC(=O)[C@@H]1C[C@@H]2CCCC[C@@H]2N1C(=O)[C@@H](NC(=O)[C@@H](NC(=O)c1cnccn1)C1CCCCC1)C(C)(C)C)C(=O)C(=O)NOCc1ccccc1 [Compound 3, 1-(2-{2-Cyclohexyl-2-[(pyrazine-2-carbonyl)-amino]-acetylamino}-3,3-dimethyl-butyryl)-octahydro-indole-2-carboxylic acid (1-benzyloxyaminooxalyl-butyl)-amide]",5.52 to 5.82
6,"CCC[C@H](NC(=O)[C@@H]1C[C@@H]2CCCC[C@@H]2N1C(=O)[C@@H](NC(=O)[C@@H](NC(=O)c1cnccn1)C1CCCCC1)C(C)(C)C)C(=O)C(=O)NOc1ccccc1 [Compound 5, 1-(2-{2-Cyclohexyl-2-[(pyrazine-2-carbonyl)-amino]-acetylamino}-3,3-dimethyl-butyryl)-octahydro-indole-2-carboxylic acid (1-phenoxyaminooxalyl-butyl)-amide]",5.52 to 5.82
7,CCC[C@H](NC(=O)[C@@H]1C[C@@H]2CCCC[C@@H]2N1C(=O)[C@@H](NC(=O)[C@@H](NC(=O)c1cnccn1)C1CCCCC1)C(C)(C)C)C(=O)C(=O)NN1CCOCC1 [Compound 7],< 5.52
8,CCC[C@H](NC(=O)[C@@H]1C[C@@H]2CCCC[C@@H]2N1C(=O)[C@@H](NC(=O)[C@@H](NC(=O)c1cnccn1)C1CCCCC1)C(C)(C)C)C(=O)C(=O)NN(Cc1ccccc1)Cc1ccccc1 [Compound 8],< 5.52
